This is an account of results in US12533315B2, “Compositions comprising at least one ionic liquid, a polypeptide, and at least one non-ionic surfactant for protein delivery” (PRESIDENT AND FELLOWS OF HARVARD COLLEGE, priority 2019, dated 2026).

“Also recorded” adds a separate entry of the source. Some results are limits rather than exact numbers.

The test system of series [1] is porcine skin.
Method: (§1) Preparation of FITC-labeled Fab. The Pierce™ FITC Antibody-Labeling Kit (ThermoFisher Scientific) was used to label Fab purchased from Chemical & Scientific Corporation with FITC. Briefly, 925 μL of sterilized water were added into 75 μL of 0.67 M borate buffer that had been attached to the kit, and the labeling buffer (50 mM sodium borate, pH 8.5) was prepared. Lyophilized Fab, 1 mg, was added into 0.5 mL of the labeling buffer and was then melted. The Fab solution, 0.5 mL, was added into the FITC reagent vial that had been attached to the kit and was then pipetted 10 times for the complete melting of the pigment. After the collection of the slightly centrifuged sample solution in the vial's bottom, the reaction was incubated at room temperature for 60 minutes and under light blocking. At 60 minutes later, the column containing the reaction solution was set to the recovery column that had been attached to the kit. Subsequently, 400 μL of the homogeneously suspended purification column suspension solution were added. After centrifugation (about 1,000 μg, 30 to 45 seconds), FITC-labeled Fab was recovered. The amount of antibody labeling was calculated by measuring absorbance at 280 nm and 495 nm according to the following formulae:
(§2) Preparation of the FITC-labeled Fab-CAGE sample solution. The FITC-Fab solution (50 mM sodium borate, pH 8.5) was mixed with 6 CAGE variants at a volume ratio of 50%/50% (v/v %). Regarding CAGE (1:2), the FITC-Fab solution was mixed at volume ratios of 50%/50% (v/v %), 40%/60% (v/v %), and 30%/70% (v/v %). The mixed solutions were allowed to stand at room temperature for 1 hour. Subsequently, 300 μL of the mixed solutions obtained were used for the porcine skin penetrability test.
(§3) Preparation of the FITC-labeled Fab-CAGE-polysorbate sample solutions. Polysorbates 40 and 60 were mixed with the FITC-labeled Fab solution (50 mM sodium borate, pH 8.5) to obtain the final concentration of 3%. Subsequently, the resulting solutions were mixed with CAGE (1:2) at the volume ratios of 30%/70% (v/v %) [=30% CAGE (1:2)] or 40%/60% (v/v %) [=40% CAGE (1:2)]. Because of its nature of being solid at room temperature, polysorbate 60 was dissolved by 30-minute warming at 37° C. prior to the addition. Furthermore, the solution was warmed for 10 minutes at 37° C. to completely dissolve polysorbate 60 and was then mixed with CAGE (1:2). The resulting mixed solutions were allowed to stand at room temperature for 1 hour. The final concentration of antibodies was adjusted to 10 μg/mL.
(§4) Preparation of the porcine skin. In the porcine skin penetrability test, the cryopreserved skin of a WSP was unfrozen at room temperature. A pair of scissors were used to remove hair on the skin surface, followed by washing of the skin surface with PBS. The WSP skin, with the epidermis side upward, was set to the receiver chamber of a longitudinal diffusion cell (diffusion area: 1.77 cm2). The upper portion of the skin was filled with PBS (0.01% sodium azide). A contact gauge of conductivity was used to confirm skin conductivity at 100 Hz. The WSP skin with a resistivity of ≥5.65 kΩ/cm2 only was used in the porcine skin penetrability test based on previous studies [53,54].
(§5) Skin penetrability test using the porcine skin. The porcine skin was punched in a circle with a 36-mm diameter puncher. Subsequently, the porcine skin, with the epidermis side upward, was set on the receiver chamber of a longitudinal diffusion cell (diffusion area: 1.77 cm2). PBS (0.01% sodium azide, pH 7.4) was added into the interior of the receiver chamber and to the upper portion of the skin via a donor chamber, and the skin was allowed to stand in the incubator at 37° C. for 30 minutes. Meanwhile, the solution of the receiver chamber was stirred gently.
The subject of series [2] is Fab (antihistone H1 antibody fragment; antigen KLH-SSV peptide). The following applies: Fab 10 μg/mL in 10 mM phosphate buffer.
Method: The Fab solution (10 mM phosphate buffer, pH 7.4) was mixed with CAGE (1:2) at the volume ratios of 50%/50% (v/v %), 40%/60% (v/v %), and 30%/70% (v/v %), and the mixed solutions were allowed to stand at room temperature for 1 hour. The Fab solution was prepared to obtain the final concentration of 10 μg/mL.
The solution was dialyzed with 10 mM phosphate buffer (pH 7.4) used as the dialysate at room temperature for 48 hours. The dialysate was replaced appropriately during the dialysis. At 48 hours later, the solution thus obtained was stored in a refrigerator at 4° C.
ELISA was conducted according to the method of Chiang et al. [51]. Briefly, 2 μg of KLH-SSV peptide (0.1 M sodium bicarbonate-sodium carbonate buffer, pH 9.6±0.2) were instilled into each well, and the solution was allowed to stand overnight at room temperature. After the removal of the KLH-SSV solution and the washing of each well with PBS (0.05% Tween 20®), 300 μL of SuperBlock Blocking Buffer™ in PBS were added into each well, and the solution was allowed to stand for 1 hour at room temperature. […] At 20 minutes later, SpectraMax i3™ (Molecular Devices) was used to measure absorbance at 405 nm. […]
Series [3] shares this test system. Nature of the series: Deactivation-preventing effect of polysorbates on Fab in CAGE (1:2) (ELISA). Type of series: biochemical. The following applies: for Fab deactivation-preventing effect, qualitative comparison of polysorbates: 30% and 40% CAGE (1:2), 3% to 10% polysorbate (FIGS. 7A, 7B). How it is done: Preparation of the Fab-CAGE (1:2)-polysorbate mixed solutions. […] Unlike other polysorbates, polysorbate 60 only is solid at room temperature.
The dialysate was replaced appropriately during the dialysis.
Each experiment was conducted in triplicate.
On the technique in general: In an ELISA, binding on a coated surface is turned into a signal by an enzyme label.

The subject of series [4] is porcine skin. Kind of series: Porcine skin penetrability test of FITC-labeled Fab, confocal fluorescence microscopy. The following applies: for impact on skin penetration of Fab: 3% polysorbate added to CAGE (1:2); for skin penetration of Fab: 3% polysorbate alone, without CAGE.
Method: as §1, §2, §3, §4, §5

In the case of Choline And GEranate [CAGE (1:2)], in series [1], the “penetration of Fab into skin in vitro” value is on record as “deep penetration into skin” and the “skin penetration-enhancing effect of Fab” value is listed as “most potent”. Further, in series [2], the “Fab deactivation, dependence on CAGE (1:2) concentration” value was “deactivated in a concentration dependent manner”. For the same substance, the “ELISA signal (absorbance of undialyzed aqueous Fab solution = 100%)” value in series [2] (≥5% CAGE (1:2), 1 hour room temperature, CAGE removed by dialysis) was “about 5%”.
In the case of “polyoxyethylene (20) sorbitan monolaurate [polysorbate 20]”, the “Fab deactivation-prevention effect (preventive effect)” value is “about 50%” in series [3] (3% polysorbate, 40% CAGE (1:2), Fab 10 μg/mL); around 100% in series [3] (5% polysorbate, 30% CAGE (1:2), Fab 10 μg/mL); around 100% in series [3] (8% polysorbate, 30% CAGE (1:2), Fab 10 μg/mL); “decreased slightly” in series [3] (10% polysorbate, 30% CAGE (1:2), compared with 5% and 8%); “comparable” in series [3] (10% polysorbate, 40% CAGE (1:2), compared to 3% polysorbate 20); “prevented” in series [3] (≥3% (v/v) polysorbate, 30% CAGE (1:2), Fab 10 μg/mL). In series [3] (40% CAGE (1:2), polysorbate above 3%), the “Fab deactivation-prevention effect, dependence on polysorbate concentration” value is reported as “decreased with increasing polysorbate 20 concentrations”. Further, the Fab deactivation entry in series [3] (50% CAGE (1:2), polysorbate concentrations other than 8%) was “mostly deactivated”.
As for “polyoxyethylene (20) sorbitan monooleate [polysorbate 80]”, in series [3], the “Fab deactivation-preventing effect, qualitative comparison of polysorbates” value (shortened to “Fab deactivation-preventing effect”) is “needs to be at a higher concentration compared to polysorbate 40 and polysorbate 60”.
Take “polyoxyethylene (20) sorbitan monopalmitate [polysorbate 40]”: in series [4], the “impact on skin penetration of Fab” value is “do not adversely impact skin penetration of Fab” and the “skin penetration of Fab” value was “did not impact skin penetration of the Fab”. In addition, the “Fab deactivation-preventing effect” value in series [3] was “prevented Fab deactivation at a lower concentration than did polysorbate 20; also recorded: equivalent; also recorded: more effective; also recorded: most potent”.
Take “polyoxyethylene (20) sorbitan monostearate [polysorbate 60]”: in series [4], the “impact on skin penetration of Fab” value is given as “do not adversely impact skin penetration of Fab” and the “skin penetration of Fab” value is reported as “did not induce skin penetration of Fab”. In series [4] (30% CAGE + 3% polysorbate 60 versus 30% CAGE alone), the “skin penetration of FITC-labeled Fab” value is “Comparable skin penetration”. Further, the “Fab deactivation-prevention effect (preventive effect)” value in series [3] (3% polysorbate, 30% CAGE (1:2), Fab 10 μg/mL) is above 80%. In addition, the “Fab deactivation-preventing effect” value in series [3] is listed as “equivalent; also recorded: more effective; also recorded: most potent”.
